According to PubChem BioAssay AID256 (DTP/NCI, 2004):
Several values for one entry are separate records, joined by “and”; a condition that tells them apart may be missing. Equal values may be shown once. Inconclusive results and toxic doses are left out.

System: CD2F1 mice, L1210 leukemia ip, survival T/C
Assay: NCI In Vivo Anticancer Drug Screen. Data for tumor model L1210 Leukemia (intraperitoneal) in CD2F1 (CDF1) mice
Conditions: higher = longer survival
Summary of the method: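 Read-out first: treated-group measurement over vehicle-control measurement, expressed as a ratio. Animals bore a transplanted tumor line and were dosed with compound or vehicle.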

[1] = endpoint: mean survival time, dose: 50.0 mg/kg/injection, schedule: Q04DX002 (ip), vehicle: saline with Tween-80
[2] = endpoint: mean survival time, dose: 100.0 mg/kg/injection, schedule: Q04DX002 (ip), vehicle: saline with Tween-80
[3] = endpoint: mean survival time, dose: 200.0 mg/kg/injection, schedule: Q04DX002 (ip), vehicle: saline with Tween-80
[4] = endpoint: mean survival time, dose: 100.0 mg/kg/injection, schedule: Q04DX003 (ip), vehicle: saline
[5] = endpoint: mean survival time, dose: 200.0 mg/kg/injection, schedule: Q04DX003 (ip), vehicle: saline
[6] = endpoint: mean survival time, dose: 100.0 mg/kg/injection, schedule: Q01DX009 (ip), vehicle: saline with Tween-80
[7] = endpoint: mean survival time, dose: 200.0 mg/kg/injection, schedule: Q01DX009 (ip), vehicle: saline with Tween-80
[8] = endpoint: mean survival time, dose: 100.0 mg/kg/injection, schedule: Q04DX003 (ip), vehicle: saline with Tween-80
[9] = endpoint: mean survival time, dose: 200.0 mg/kg/injection, schedule: Q04DX003 (ip), vehicle: saline with Tween-80
[10] = endpoint: mean survival time, dose: 400.0 mg/kg/injection, schedule: Q04DX003 (ip), vehicle: saline with Tween-80
[11] = endpoint: mean survival time, dose: 50.0 mg/kg/injection, schedule: Q04DX003 (ip), vehicle: saline

For `Cc1c(OCC(=O)O)cc(Cl)c(Cl)c1Cl`, the T/C [1] was 105 % of control, the T/C [2] was 102 % of control and the T/C [3] was 121 % of control.

For `CC(C)(C)OC(=O)NC(C(=O)O)C1=CCC=CC1` (stereo not given), the T/C (endpoint: mean survival time, dose: 25.0 mg/kg/injection, schedule: Q01DX009 (ip), vehicle: other) was 100 % of control, the T/C (endpoint: mean survival time, dose: 50.0 mg/kg/injection, schedule: Q01DX009 (ip), vehicle: other) was 96 % of control and the T/C (endpoint: mean survival time, dose: 50.0 mg/kg/injection, schedule: Q04DX002 (ip), vehicle: other) was 101 % of control. The T/C (endpoint: mean survival time, dose: 50.0 mg/kg/injection, schedule: Q04DX003 (ip), vehicle: other) was 103 % of control, the T/C (endpoint: mean survival time, dose: 100.0 mg/kg/injection, schedule: Q01DX001 (ip), vehicle: other) was 106 % of control and the T/C (endpoint: mean survival time, dose: 100.0 mg/kg/injection, schedule: Q01DX009 (ip), vehicle: other) was 91 % of control. The T/C (endpoint: mean survival time, dose: 100.0 mg/kg/injection, schedule: Q04DX002 (ip), vehicle: other) was 101 % of control, the T/C (endpoint: mean survival time, dose: 100.0 mg/kg/injection, schedule: Q04DX003 (ip), vehicle: other) was 106 % of control and the T/C (endpoint: mean survival time, dose: 200.0 mg/kg/injection, schedule: Q01DX001 (ip), vehicle: other) was 99 % of control. For the same compound, the T/C (endpoint: mean survival time, dose: 200.0 mg/kg/injection, schedule: Q01DX009 (ip), vehicle: other) was 91 % of control, the T/C (endpoint: mean survival time, dose: 200.0 mg/kg/injection, schedule: Q04DX002 (ip), vehicle: other) was 94 % of control and the T/C (endpoint: mean survival time, dose: 200.0 mg/kg/injection, schedule: Q04DX003 (ip), vehicle: other) was 97 % of control. The T/C (endpoint: mean survival time, dose: 400.0 mg/kg/injection, schedule: Q01DX001 (ip), vehicle: other) was 99 % of control, the T/C (endpoint: mean survival time, dose: 400.0 mg/kg/injection, schedule: Q04DX002 (ip), vehicle: other) was 101 % of control and the T/C (endpoint: mean survival time, dose: 400.0 mg/kg/injection, schedule: Q04DX003 (ip), vehicle: other) was 97 % of control. The T/C (endpoint: mean survival time, dose: 600.0 mg/kg/injection, schedule: Q01DX001 (ip), vehicle: other) was 96 % of control.

With `c1coc(-c2nc3ccccc3s2)c1` the T/C (endpoint: mean survival time, dose: 50.0 mg/kg/injection, schedule: Q01DX001 (ip), vehicle: Klucel (hydroxypropylcellulose) (HPC)) was 96 % of control, the T/C (endpoint: mean survival time, dose: 100.0 mg/kg/injection, schedule: Q01DX001 (ip), vehicle: Klucel (hydroxypropylcellulose) (HPC)) was 93 % of control and 95 % of control and the T/C (endpoint: mean survival time, dose: 200.0 mg/kg/injection, schedule: Q01DX001 (ip), vehicle: Klucel (hydroxypropylcellulose) (HPC)) was 120 % of control and 90 % of control.

In the case of `NC1CCCCC1N.O=C([O-])c1cc(S(=O)(=O)Nc2cc(S(=O)(=O)[O-])cc3cc(S(=O)(=O)[O-])cc(O)c23)ccc1[O-].[Pt+4]`, the T/C (endpoint: median survival time, dose: 0.39 mg/kg/injection, schedule: Q04DX003 (ip), vehicle: saline with Tween-80) is reported as 124 % of control, the T/C (endpoint: median survival time, dose: 1.56 mg/kg/injection, schedule: Q04DX003 (ip), vehicle: saline with Tween-80) is reported as 181 % of control and the T/C (endpoint: median survival time, dose: 3.12 mg/kg/injection, schedule: Q04DX003 (ip), vehicle: saline with Tween-80) is reported as 253 % of control and 264 % of control. For the same compound, the T/C (endpoint: median survival time, dose: 6.25 mg/kg/injection, schedule: Q04DX003 (ip), vehicle: saline with Tween-80) was 289 % of control and 103 % of control.

With `CN1CCN(CCCN2CC3CC=CCC3C2)CC1` (stereo not given) the T/C [4] was 105 % of control and the T/C [5] was 100 % of control.

With `N#CC/C(=N\Nc1ccc([N+](=O)[O-])cc1[N+](=O)[O-])c1ccccc1` the T/C (endpoint: mean survival time, dose: 100.0 mg/kg/injection, schedule: Q04DX003 (ip), vehicle: saline sonified) was 100 % of control, the T/C (endpoint: mean survival time, dose: 200.0 mg/kg/injection, schedule: Q04DX003 (ip), vehicle: saline sonified) was 100 % of control and the T/C (endpoint: mean survival time, dose: 400.0 mg/kg/injection, schedule: Q04DX003 (ip), vehicle: saline sonified) was 97 % of control.

For `O=C(NC(=S)N1CCCC1)c1ccccc1`, the T/C (endpoint: mean survival time, dose: 50.0 mg/kg/injection, schedule: Q01DX009 (ip), vehicle: saline with Tween-80) was 101 % of control, the T/C [6] was 103 % of control and the T/C [7] was 106 % of control.

In the case of `CCC(=O)OC1(c2ccccc2)CCN(C/C=C/c2ccc(F)cc2)CC1`, the T/C (endpoint: mean survival time, dose: 6.25 mg/kg/injection, schedule: Q01DX009 (ip), vehicle: saline with Tween-80) is reported as 98 % of control, the T/C (endpoint: mean survival time, dose: 12.5 mg/kg/injection, schedule: Q01DX009 (ip), vehicle: saline with Tween-80) is reported as 98 % of control and the T/C (endpoint: mean survival time, dose: 25.0 mg/kg/injection, schedule: Q01DX009 (ip), vehicle: saline with Tween-80) is reported as 110 % of control.

For `CCCCC(=O)O.[Pb]`, the T/C (endpoint: mean survival time, dose: 75.0 mg/kg/injection, schedule: Q01DX001 (ip), vehicle: steriod suspending solution) was 100 % of control, the T/C (endpoint: mean survival time, dose: 150.0 mg/kg/injection, schedule: Q01DX001 (ip), vehicle: steriod suspending solution) was 104 % of control and the T/C (endpoint: mean survival time, dose: 300.0 mg/kg/injection, schedule: Q01DX001 (ip), vehicle: steriod suspending solution) was 97 % of control.

With `C=NNC(=O)c1ccncc1` the T/C [6] was 100 % of control, the T/C [7] was 101 % of control and the T/C (endpoint: mean survival time, dose: 400.0 mg/kg/injection, schedule: Q01DX009 (ip), vehicle: saline with Tween-80) was 95 % of control.

`CCCCCCCCCCCCOB(OCCCCCCCCCCCC)OCCCCCCCCCCCC` was tested, and the T/C [8] was 95 % of control, the T/C [9] was 103 % of control and the T/C [10] was 94 % of control.

With `CCCCOC(=O)c1ccc(NC(=O)NCCC)cc1` the T/C [4] was 101 % of control, the T/C [5] was 101 % of control and the T/C (endpoint: mean survival time, dose: 400.0 mg/kg/injection, schedule: Q04DX003 (ip), vehicle: saline) was 97 % of control.

For `O/N=C(\CN1CCOCC1)c1ccc(Cl)cc1`, the T/C (endpoint: mean survival time, dose: 50.0 mg/kg/injection, schedule: Q01DX009 (ip), vehicle: saline) was 107 % of control, the T/C (endpoint: mean survival time, dose: 100.0 mg/kg/injection, schedule: Q01DX009 (ip), vehicle: saline) was 96 % of control and the T/C (endpoint: mean survival time, dose: 200.0 mg/kg/injection, schedule: Q01DX009 (ip), vehicle: saline) was 103 % of control.

In the case of `CC1=CC(=O)C(CCC(=O)O)C(C)(C)C1` (stereo not given), the T/C [2] is reported as 91 % of control, the T/C [3] is reported as 94 % of control and the T/C (endpoint: mean survival time, dose: 400.0 mg/kg/injection, schedule: Q04DX002 (ip), vehicle: saline with Tween-80) is reported as 94 % of control.

With `C#CC(O)CCC` (stereo not given) the T/C (endpoint: mean survival time, dose: 100.0 mg/kg/injection, schedule: Q01DX001 (ip), vehicle: saline) was 97 % of control and the T/C (endpoint: mean survival time, dose: 200.0 mg/kg/injection, schedule: Q01DX001 (ip), vehicle: saline) was 97 % of control.

In the case of `O=P(O)(O)c1ccc(Oc2ccccc2)cc1`, the T/C [11] is reported as 102 % of control, the T/C [4] is reported as 93 % of control and the T/C [5] is reported as 103 % of control.

In the case of `Cc1ccc(P(=O)(O)O)c([N+](=O)[O-])c1`, the T/C [11] is reported as 105 % of control, the T/C [4] is reported as 95 % of control and the T/C [5] is reported as 105 % of control.

`CCC1(O)C(=O)OCc2c1cc1n(c2=O)Cc2cc3ccc(C)cc3nc2-1` (stereo not given) was tested, and the T/C (endpoint: median survival time, dose: 10.0 mg/kg/injection, schedule: Q04DX002 (ip), vehicle: saline with Tween-80) was 108 % of control.

`CC(CO)CCC(C)CO` (stereo not given) was tested, and the T/C [8] was 100 % of control, the T/C [9] was 95 % of control and the T/C [10] was 100 % of control.

In the case of `CSc1[nH]c2ncnc(Cl)c2c1C#N`, the T/C (endpoint: mean survival time, dose: 75.0 mg/kg/injection, schedule: Q01DX001 (ip), vehicle: saline) is reported as 100 % of control and the T/C (endpoint: mean survival time, dose: 150.0 mg/kg/injection, schedule: Q01DX001 (ip), vehicle: saline) is reported as 94 % of control.

With `CCN(CC)CCn1[nH]c2c3ccc(=O)cc3sc3c(NCCN)ccc1c32` the T/C (endpoint: median survival time, dose: 1.5 mg/kg/injection, schedule: Q01DX009 (ip), vehicle: water) was 168 % of control, the T/C (endpoint: median survival time, dose: 1.56 mg/kg/injection, schedule: Q01DX005 (ip), vehicle: water) was 154 % of control and the T/C (endpoint: median survival time, dose: 3.0 mg/kg/injection, schedule: Q01DX005 (ip), vehicle: water) was 183 % of control. The T/C (endpoint: median survival time, dose: 3.0 mg/kg/injection, schedule: Q01DX009 (ip), vehicle: water) was 180 % of control, the T/C (endpoint: median survival time, dose: 3.12 mg/kg/injection, schedule: Q01DX005 (ip), vehicle: water) was 192 % of control and 244 % of control and the T/C (endpoint: median survival time, dose: 6.0 mg/kg/injection, schedule: Q01DX005 (ip), vehicle: water) was 152 % of control. For the same compound, the T/C (endpoint: median survival time, dose: 6.0 mg/kg/injection, schedule: Q01DX009 (ip), vehicle: water) was 216 % of control, the T/C (endpoint: median survival time, dose: 6.25 mg/kg/injection, schedule: Q01DX005 (ip), vehicle: water) was 186 % of control and 357 % of control and the T/C (endpoint: median survival time, dose: 12.0 mg/kg/injection, schedule: Q01DX005 (ip), vehicle: water) was 95 % of control. The T/C (endpoint: median survival time, dose: 12.0 mg/kg/injection, schedule: Q01DX009 (ip), vehicle: water) was 216 % of control and the T/C (endpoint: median survival time, dose: 12.5 mg/kg/injection, schedule: Q01DX005 (ip), vehicle: water) was 231 % of control and 357 % of control.

For `CCOC(=O)/C(O)=C\c1cc(OC)nnc1Cl`, the T/C (endpoint: mean survival time, dose: 12.5 mg/kg/injection, schedule: Q04DX002 (ip), vehicle: saline with Tween-80) was 114 % of control, the T/C (endpoint: mean survival time, dose: 25.0 mg/kg/injection, schedule: Q04DX002 (ip), vehicle: saline with Tween-80) was 101 % of control and the T/C [1] was 101 % of control.

`CC(NC(=O)OCc1ccccc1)C(=O)O` (stereo not given) was tested, and the T/C [6] was 97 % of control, the T/C [8] was 100 % of control and the T/C [7] was 94 % of control. For the same compound, the T/C [9] was 105 % of control and the T/C [10] was 103 % of control.

With `O=S(=O)(O)c1ccccc1N=Nc1c(S(=O)(=O)O)cc2cc(S(=O)(=O)O)c(N=Nc3ccccc3S(=O)(=O)O)c(O)c2c1O` the T/C [8] was 97 % of control and the T/C [9] was 100 % of control.
